Values quoted from earlier work as cited in patent publication US10413482B2, “Delamination resistant pharmaceutical glass containers containing active pharmaceutical ingredients” (Corning Incorporated, priority 2011, dated 2019).

Assays:
[1] = tested on: patients with acute coronary syndrome (ACS); conditions: in vivo
[2] = not given; remark: listed apart in the source
[3] = for duration of action: after injection
[4] = tested on: patients with moderate to severe ulcerative colitis; conditions: in vivo
[5] = tested on: patients whose asthma cannot be adequately controlled with inhalable glucocorticoids; conditions: in vivo
[6] = once-daily
[7] = tested on: adults with late-onset LAL Deficiency

For `COC(=O)[C@H](Cc1cccc(C(=N)N)c1)[C@@H](C)NC(=O)c1ccc(-c2cc[n+]([O-])cc2)cc1` (mixture of isomers) [Otamixaban, reference compound], the major coronary complications [1] is given as “reduce major coronary complications” and the “degradation during sterilization and storage” value (formulations at pH between 3 and 5) is given as “decreased otamixaban degradation during sterilization and storage”.

In the case of `[Cl][223Ra][Cl]` [Radium-223, Radium-223 dichloride], the half-life [2] is listed as 11.4 days.

For Insulin detemir, the duration of action [3] is given as “up to 24 hours”.

In the case of “Vedolizumab: humanized monoclonal antibody targeting α4β7 integrin”, the “safety and clinical remission” value [4] is given as “safe and effective for inducing and maintaining clinical remission”.

In the case of insulin degludec, the duration of action [3] is listed as “more than 24 hours”.

In the case of “insulin regular: formulation of recombinant insulin structurally identical to the insulin produced by the human pancreas”, the duration of action [3] is listed as “approximately 8 hours” and the “onset of pharmacologic effect” value ([3]; after subcutaneous administration) is listed as “approximately one-half”.

In the case of “lebrikizumab: humanized monoclonal antibody against interleukin-13 (IL-13)”, the symptoms of asthma [5] is given as “significantly decrease the symptoms of asthma”.

For lixisenatide, the tolerability [6] is listed as “well-tolerated” and the glycemic control ([6]; one-step dose increase, single maintenance dose) is listed as “significantly improved glycemic control”.

In the case of relaxin, the shelf-life (approximately pH 5, 5° C., acceptable reduction of 10% in the HPLC main peak area) is listed as “at least 2 years”.

B1: SBC-102: recombinant form of the human LAL enzyme (protein, UniProt P38571 77-399, looked up)
Lysosomal acid …: GPKPVVFLQHGLLADSSNWVTNLANSSLGFILADAGFDVWMGNSRGNTWSRKHKTLSVSQDEFWAFSYDEMAKYDLPASINFILNKTGQEQVYYVGHSQGTTIGFIAFSQIPELAKRIKMFFALGPVASVAFCTSPMAKLGRLPDHLIKDLFGDKEFLPQSAFLKWLGTHVCTHVILKELCGNLCFLLCGFNERNLNMSRVDVYTTHSPAGTSVQNMLHWSQAVKFQKFQAFDWGSSAKNYFHYNQSYPPTYNVKDMLVPTAVWSGGHDWLADVYDVNILLTQITNLVFHESIPEWEHLDFIWGLDAPWRLYNKIINLMRKYQ
For B1, the LDL ([7]; same time period) is given as “a reduction in LDL was also observed”, the “total cholesterol, HDL cholesterol, and triglycerides” value ([7]; versus original baseline, p<0.05) is given as “significantly improved” and the liver transaminase levels ([7]; weekly then every other week infusions) is given as “sustained impact of SBC-102 on reducing liver transaminase levels”.
